Source: article PMC5322882, “Alterations in cellular pharmacokinetics and pharmacodynamics of elvitegravir in response to ethanol exposure in HIV-1 infected monocytic (U1) cells” (PLoS ONE, 2017)

Assays:
HIV-1 replication = assay: HIV p24 ELISA in culture medium of U1 cells (HIV replication); type: cell-based; conditions: 24 hours; for effect on HIV p24 levels compared to control (in words): Fig 5; for HIV p24 level in culture media, mean (Fig 5): percentage of vehicle control, MK-571 50 μM, PSC-833 5 μM; for HIV p24 level in culture media, mean (Fig 2): percentage of vehicle control (100%), EVG 5 μM, COBI 2 μM, ethanol 20 mM
Procedure: (§1) HIV-infected U937 cell line—the U1 cells were obtained through the NIH AIDS Reagent Program (Germantown, MD). U1 cells were cultured in Roswell Park Memorial Institute (RPMI) 1640 media (Corning Inc, Tewksbury, MA) supplemented with 10% fetal bovine serum (Atlanta biologicals, Atlanta, GA), 1% L-glutamine, nonessential amino acid solution, sodium bicarbonate, and penicillin-streptomycin solution. Cells were plated at 0.9x10^6 cells/well of 6-well plates and were differentiated into macrophages with 100 nM Phorbol 12-myristate 13-acetate (PMA) for 72 hours prior to treatment. On the day of experiment, medium was removed and cells were washed twice with PBS and treated with media containing clinically relevant concentrations of (a) EVG (5 μM), (b) EVG+COBI (2 μM), (c) EVG+ethanol (20 mM), (d) EVG+COBI+ethanol. Ethanol-treated plates were placed in an incubator that humidified with 20 mM ethanol to prevent any loss of ethanol due to evaporation.
(§2) At predetermined time points (0.5, 1, 3, 6, 12, and 24 hours), cells were collected for concentration-time profile experiments and medium was collected for HIV p24 measurement. At each time point, cells were washed twice with PBS and incubated with 400 μL of cold Radioimmunoprecipitation assay (RIPA) buffer for 10 minutes and the cell lysates were collected.
Influence of the combination of drugs on HIV replication was determined by measurement of HIV p24 levels in the cell culture medium. […] The concentration of p24 in the samples was quantitated by comparing with standards’ absorbance values and reported in percentage of control. The vehicle-treated samples were used as control and set as 100%.

U1 cells [1] = assay: Intracellular elvitegravir concentration in the presence of MRP1 or MDR1 inhibitors and cobicistat + ethanol; type: in vitro ADME; conditions: cells co-treated with EVG+COBI+ethanol (control), 24 hours
Procedure: as §2

[2] = parameters: method as in PMID 10817729; conditions: ethanol 0.7 g/kg with 600 mg of abacavir, 25 male HIV-infected individuals; cited from earlier work
CYP3A4 = assay: In-Cell Western analysis of CYP3A4 protein expression in U1 cells; type: cell-based; conditions: 24 hours; for change in CYP3A4 expression compared to control (in words): U1 cells; for CYP3A4 fluorescence signal intensity, mean (Fig 3A): relative response compared to vehicle controls, normalized to β-actin
Procedure: (§3) Detecting low levels of protein expression in native cells using traditional Western blotting can be difficult and therefore some studies successfully used In-Cell Western blotting (ICW) to quantify minor alterations in protein expression. We used manufacturer recommended (LI-COR Biosciences, NE) protocol in this study to perform ICW. U1 cells (0.03x10^6) were plated in sterile 96-well plates and differentiated with 100 nM PMA for 72 hours at 37°C in a humidified incubator while maintaining 5% CO2 air flow. On the day of treatment, each well was flushed with sterile PBS (250 μl) followed by addition of a 250 μl RPMI media containing various combinations of drugs previously mentioned. These plates were incubated for 24 hours prior to fixation. Medium from each well was removed by careful aspiration and cells were immediately fixed by addition of cold (-20°C) methanol (200 μl) followed by incubation of the plate at ambient temperature for 10 minutes with gentle shaking. Following incubation, methanol was carefully removed and wells were gently rinsed thrice with PBS (200 μl). After the last rinse, blocking was done by adding a 150 μl of Li-Cor blocking buffer and incubating the plate at room temperature with gentle shaking for 1.5 hours. Meanwhile, the primary antibodies were diluted in Li-Cor Odyssey blocking buffer using following dilutions: 3A4 (Rabbit Pab, Abcam # ab3572) 1: 200; MRP1 (mouse mab, Millipore # MAB4100) 1:50; MDR1(mouse mab, Millipore # MAB4334) 1:50; β-Actin (Mouse mAb Cell Signaling # 3700) 1:2000; β-Actin (Rabbit mAb Cell Signaling # 4970) 1:200. After blocking, 50 μl of desired antibody added to test wells and incubated overnight at 4°C with gentle shaking. On the following day, wells were washed five times with 200 μl PBS containing Tween-20 (0.1%) for 5 minutes at room temperature with gentle shaking. Secondary antibodies, goat anti-Mouse Mab (Li-Cor # 926–68170) and goat anti-Rabbit Mab (Li-Cor # 827–08365) were diluted in 1:1000 ratio in blocking buffer (0.2% -Tween-20, 0.01% SDS). After the final wash, wells were incubated with 50 μl of secondary antibody mixture for 1 hour in the dark at room temperature. After five washes, plates were scanned using Li-Cor Odyssey® SA and analyzed by using Image Studio V4.0 software (LI-COR Biosciences, NE). Background was subtracted from control wells and target protein signal intensities from triplicate wells were normalized to their respective β-actin intensities. Signal intensities were expressed as percent of relative responses (mean ± standard errors of mean) compared to vehicle controls.

MRP1 = assay: In-Cell Western analysis of MRP1 protein expression in U1 cells; type: cell-based; conditions: 24 hours; for change in MRP1 expression compared to control (in words): U1 cells; for MRP1 fluorescence signal intensity, mean (Fig 3B): relative response compared to vehicle controls, normalized to β-actin
Procedure: as §3

MDR1 = assay: In-Cell Western analysis of MDR1 protein expression in U1 cells; type: cell-based; conditions: 24 hours; for change in MDR1 expression compared to control (in words): U1 cells; for MDR1 fluorescence signal intensity, mean (Fig 3C): relative response compared to vehicle controls, normalized to β-actin
Procedure: as §3

[3] = Intracellular elvitegravir concentration-time profile (cellular pharmacokinetics) in U1 cells, LC-MS/MS; type: in vitro ADME; conditions: human, intracellular EVG in U1 cells
Procedure: as §1, §2
(§4) A previously reported LC-MS/MS method was used to quantitate EVG in cell lysates, culture medium, and plasma samples used in this study. Calibrants (0.003, 0.006, 0.013, 0.025, 0.05, 0.1, 0.15, 0.25, 0.5, and 1 μM) were prepared by serial dilution approach with the corresponding working solutions. EVG extraction from the calibrants and study samples was performed by adding 3-volumes of cold acetonitrile which contained a 138 nM ritonavir (RTV) as internal standard (IS). All samples were centrifuged at 8000 rpm for 10 minutes at 4°C and clear supernatants were transferred into vails with low-volume inserts for LC-MS/MS analysis. Samples (5 μL) were injected onto a Waters Xterra® MS C18 Column (125Å, 3.5 μ, 4.6 X 50 mm) (Waters Corporation, Milford, MA) attached to a Shimadzu Nexera HPLC system coupled with a tandem mass spectrometer (Triple Quad 5500 from AB SCIEX, Framingham, MA) with electron spray ionization in positive mode. Data was acquired and analyzed with the Analyst software package (ver.1.6.2, AB SCIEX, Framingham, MA). Concentrations were quantified by the Quantitative Analysis module (Analyst ver 1.6.2, AB SCIEX, Framingham, MA) from a standard curve fitted with a linear-regression model with a weighting factor of 1/x^2.
(§5) The concentration-time profiles were analyzed by non-compartmental modeling using Phoenix WinNonlin 6.4 (Certara L.P., Princeton, NJ). Area under the curve (AUCtot) was calculated by the log trapezoidal rule by log-linear regression. The maximum concentration achieved (Cmax) and the time to maximum concentration (Tmax) were determined from the concentration-time profiles. Effect of ethanol on EVG AUCtot and Cmax were compared using unpaired t test with Welch's correction. Tmax values were compared using Wilcoxon rank-sum test. All other data involving more than two groups were compared by one way ANOVA and multiple comparisons were performed by Tukey’s post hoc test. ANOVA data was presented along with multiplicity adjusted p values for each comparison. All the statistical analyses were done by Prism 6 (GraphPad Software, La Jolla, CA). A p-value ≤ 0.05 among treatment groups was considered significant.

U1 cells [4] = assay: as above; type: in vitro ADME; conditions: for cellular EVG concentration, mean: U1 cells
Procedure: as §1, §2, §4, §5

Row | SMILES | effect on HIV p24 levels compared to control (in words) (HIV-1 replication; U1 cells) | HIV p24 level in culture media, mean (Fig 5) (HIV-1 replication) | HIV p24 level in culture media, mean (Fig 2) (HIV-1 replication) | change in CYP3A4 expression compared to control (in words) (CYP3A4) | CYP3A4 fluorescence signal intensity, mean (Fig 3A) (CYP3A4) | change in MRP1 expression compared to control (in words) (MRP1) | MRP1 fluorescence signal intensity, mean (Fig 3B) (MRP1) | change in MDR1 expression compared to control (in words) (MDR1) | MDR1 fluorescence signal intensity, mean (Fig 3C) (MDR1) | further results
1 | CN(C)C(=O)CCSC(SCCC(=O)O)c1cccc(/C=C/c2ccc3ccc(Cl)cc3n2)c1 (centres unmarked) [MK-571] | did not show any effect | 104.1% | – | – | – | – | – | – | – | –
2 | C/C=C/C[C@@H](C)C(=O)[C@H]1C(=O)N[C@@H](C(C)C)C(=O)N(C)CC(=O)N(C)[C@@H](CC(C)C)C(=O)N[C@@H](C(C)C)C(=O)N(C)[C@@H](CC(C)C)C(=O)N[C@@H](C)C(=O)N[C@H](C)C(=O)N(C)[C@@H](CC(C)C)C(=O)N(C)[C@@H](CC(C)C)C(=O)N(C)[C@@H](C(C)C)C(=O)N1C [PSC-833] | did not show any effect | 98.57% | – | – | – | – | – | – | – | effect on intracellular EVG concentration (in words) (U1 cells [1]): no significant effect
3 | Nc1nc(NC2CC2)c2ncn([C@H]3C=C[C@@H](CO)C3)c2n1 [abacavir] | – | – | – | – | – | – | – | – | – | increase in half-life with ethanol consumption [2]: 26%; increase in maximum concentration with ethanol consumption [2]: 15%; increase in total exposure with ethanol consumption [2]: 41%
4 | CCO [EtOH, ethanol] | – | 135.4% | 135.4% | significant induction | 167.5% | upregulated | 167.2% | significant induction | 128% | increase in HIV p24 levels compared to vehicle control (HIV-1 replication; U1 cells): 35%
5 | COc1cc2c(cc1Cc1cccc(Cl)c1F)c(=O)c(C(=O)O)cn2[C@H](CO)C(C)C [EVG, elvitegravir] | – | – | 70.3% | no change | 104.7% | no effect | 100% | no influence | 91.21% | Cmax at 5 μM ([3]; EVG 5 μM, COBI 2 μM, ethanol 20 mM, mean ± SEM): 82 ± 4 µM; Tmax at 5 μM ([3]; median (range)): 12 h; cellular EVG concentration, mean (U1 cells [4]; 0.5 hours): 41.39 μM/mg of protein; cellular EVG concentration, mean (U1 cells [4]; 1 hour): 51.13 μM/mg of protein; cellular EVG concentration, mean (U1 cells [4]; 3 hours): 59.00 μM/mg of protein; cellular EVG concentration, mean (U1 cells [4]; 6 hours): 66.27 μM/mg of protein; cellular EVG concentration, mean (U1 cells [4]; 12 hours): 78.01 μM/mg of protein; cellular EVG concentration, mean (U1 cells [4]; 24 hours): 72.02 μM/mg of protein; AUCtot (U1 cells [4]; intracellular EVG in PMA-differentiated U1 cells, 0 to 24 hours, EVG 5 μM, COBI 2 μM, ethanol 20 mM, mean ± SEM): 1733 ± 122 μMXh/mg; mean exposure (AUCtot) (U1 cells [4]; intracellular EVG in U1 cells): 1733 ± 122 µM·h/mg; reduction of HIV p24 levels (HIV-1 replication; U1 cells, compared to vehicle): 30%
